Test results as given in paper PMC9774249, “A Novel Peptide with Antifungal Activity from Red Swamp Crayfish Procambarus clarkii” (Antibiotics, 2022).
Where two headings read alike, the source gives them in different places. Where no end group is shown, it is not given here.

Legend:
C. albicans ATCC 10231 [1] = type: cell-based, Candida albicans; conditions: ATCC 10231, 24 h
Procedure: Sub-MIC concentrations were tested for their ability to interfere with the growth as sessile community of S. aureus ATCC 25923, P. aeruginosa ATCC 15442, and C. albicans ATCC 10231, as previously described. Bacterial strains or the fungal strain were incubated in test tubes with TSB or Sabouraud (5 mL) containing 2% w/v glucose at 37 °C for 24 h. After that, small aliquots (2.5 μL) from the diluted microbial suspensions whose turbidity was equivalent to a 0.5 McFarland standard were added to each well of a polystyrene sterile flat-bottom 96-well plate filled with TSB or BS (200 μL) with 2% w/v glucose. Sub-MIC concentration values of amino acidic fraction from hemocytes and hemolymph of P. clarkii or of chemically synthesized peptides were directly added to the wells and the plates were incubated at 37 °C for 24 h. After biofilm growth, samples were washed twice with sterile 0.9% NaCl and stained with 200 μL of 0.1% w/v crystal violet solution for 15 min at 37 °C [58]. Excess solution was discarded, and the plate was washed twice using tap water. […] Last, the absorbance was determined at 600 nm using a microplate reader (GloMax®-Multi Detection System, Promega Italia s.r.l, Milan, Italy). […] The percentage of inhibition was calculated through the formula:% Inhibition = [(OD growth − OD sample)/OD growth control] × 100. […]

C. albicans ATCC 10231 [2] = type: cell-based, Candida albicans
Procedure: (§1) Natural extracts derived from hemocytes and hemolymph of P. clarkii were liophylized and then resuspended in ultrapure water to obtain a protein content of 22 µg/mL and 1400 µg/mL, respectively. MIC values of extracts were determined by a micro-method previously described based on serial dilution 1:2 of the extracts, using Mueller Hinton II medium and Sabouraud medium (for C. albicans), in 96-well microplates and starting from concentrations of 50% v/v to 1.5 % v/v in a final volume equal to 100 μL. Thus, 10 μL of microbial suspension (5 × 10^6 CFU/ mL) obtained from a bacterial culture grown at 37 °C for 24 h on Tryptic Soy Agar (TSA) in 5 mL of 0.9% NaCl, with a turbidity equivalent to a 0.5 McFarland standard was added to 96-well plates and incubated at 37 °C for 24 h. MICs of extracts were determined by a microplate reader (GloMax®-Multi Detection System, Promega Italia s.r.l, Milan, Italy) with the lowest concentration of the sample whose optical density (OD) at 570 nm was similar to negative control wells (broth without inoculum to control the sterility of medium). Moreover, a positive growth control (bacterial tested strain in the medium without extracts to compare the growth of cells with samples) and a sample control (extract solutions without inoculum to control the absorbance of the samples at different concentrations) were also added.
(§2) The same methods and media were used to determine the antimicrobial activity of synthetic peptides #3, #5, #7, and #14, and derivatives. They were dissolved in ultrapure water, or 1 mL ultrapure water with 40 μL NH4OH (28% v/v) in the case of peptide #14, to obtain a stock solution of 5 mg/mL. Working solutions of 250 μg/mL were prepared for each peptide in MHII or Sabouraud, and test solutions in a 96 wells plate were obtained by diluting in a series 1:2. Each assay was performed in triplicate.

S. aureus ATCC 25923 = type: cell-based, Staphylococcus aureus
Procedure: as §1, §2

C. albicans ATCC 10231 [3] = test: Cell membrane integrity, propidium iodide uptake; type: cell-based, Candida albicans; conditions: 25, 20 and 15 μg/mL (sub-MIC), 24 h
Procedure: The cell membrane integrity of C. albicans ATCC 10231 after exposure to peptide #14d was evaluated using the PI uptake assay, as described by Bezerra et al., with some modifications. C. albicans ATCC 10231 was incubated with the peptide #14d in the same conditions reported for inhibition of biofilm formation. Thus, 20 μL of propidium iodide (PI, Molecular probes^TM, Fisher Scientific, Erembodegem, Belgium) was added to each well and the plate was incubated in the dark for 30 min at 25 °C. Then, the plate was washed three times with 0.9% NaCl and observed with an Olympus FV1200 confocal microscope with TIRF (Total internal reflection fluorescence) integrated, using an excitation wavelength of 535 nm and emission wavelength of 617 nm.

E. coli ATCC 25922 = type: cell-based, Escherichia coli
Procedure: as §1, §2

P. aeruginosa ATCC 15442 = type: cell-based, Pseudomonas aeruginosa
Procedure: as §1, §2

C. albicans ATCC 10231 [4] = test: Overproduction of reactive oxygen species (DCFH-DA); type: cell-based, Candida albicans; conditions: 25 and 20 μg/mL
Procedure: The ROS overproduction in C. albicans ATCC 10231 due to peptide #14d was evaluated using the method described by Bezerra et al., with some modifications. C. albicans ATCC 10231 was incubated with peptide #14d in the same conditions reported for biofilm inhibition formation. Then, the formed biofilm was washed with 0.9% NaCl three times to remove the Sabouraud liquid medium. After this procedure, 20 μL of 2′,7′ dichlorofluorescein diacetate (DCFH-DA) was added to each well and the plate was incubated in the dark for 30 min at 25 °C. DCFH-DA is oxidized by ROS to dichlorofluorescein, which emits green fluorescence. Lastly, the biofilms were washed with 0.9% NaCl three times and observed with a fluorescence microscope with an excitation wavelength of 488 nm and emission wavelength of 525 nm.

E. faecalis ATCC 29212 = type: cell-based, Enterococcus faecalis
Procedure: as §1, §2

[5] = system: C. albicans ATCC 10231 biofilm; test: Scanning electron microscopy of biofilm morphology; type: cell-based, Candida albicans; conditions: 25 μg/mL (sub-MIC), 24 h, versus control
Procedure: The morphological changes in C. albicans ATCC 10231 cells were assessed by scanning electron microscopy (SEM, Phenom ProX, PhenomWorld, Eindhoven, Netherlands), using the method described by Bezerra et al., with some modifications. Biofilms were fixed with a 4% formaldehyde solution in DPBS for 30 min at 37 °C. Then, the biofilms were washed three times with sodium phosphate buffer (pH = 7.4). Next, samples were dehydrated with increased ethanol concentrations (30%, 50%, 70%, and 100%) for 10 min at 24 °C. Lastly, the final dehydration was conducted with […] (HDMS) for 10 min, removing the solvent at the end of washing to allow the samples to air dry. The samples were analyzed by scanning electron microscopy (SEM, Phenom ProX, PhenomWorld).

selected strains = test: EC50 under low-salt conditions (viable count); type: cell-based; conditions: 10 mM sodium phosphate buffer, 100-0.15 μg/mL, 3 h 37 °C, CFU count, maximum tested 100 μg/mL
Procedure: The antimicrobial activity of the chemically synthesized peptides #3, #5, #7, and #14, and their derivatives, against selected strains were evaluated in terms of peptide half-maximal effective concentration to inhibit 50% of the viable bacteria (EC50), as reported by other authors. Briefly, 5 × 10^4 CFU per well of tested microorganisms were incubated with peptide concentrations from 100 to 0.15 μg/mL (1:2 serial dilutions) for 3 h at 37 °C in 100 μL of 10 mM sterile sodium phosphate buffer. After 3 h, 10 μL of each dilution was spotted in triplicate on Tryptic Soy Agar plates and incubated at 37 °C for 24 h. After the incubation time, the number of colonies from any sample were counted and compared with the CFU viable count of the none-treated growth control.

[6] = synthetic peptides, S. aureus ATCC 25923, maximum tested 250 μg/mL, 1:2 dilutions, MHII, 37 °C 24 h, triplicate
[7] = synthetic peptides, E. coli ATCC 25922, maximum tested 250 μg/mL, 1:2 dilutions, MHII, 37 °C 24 h, triplicate
[8] = synthetic peptides, P. aeruginosa ATCC 15442, maximum tested 250 μg/mL, 1:2 dilutions, MHII, 37 °C 24 h, triplicate
[9] = synthetic peptides, E. faecalis ATCC 29212, maximum tested 250 μg/mL, 1:2 dilutions, MHII, 37 °C 24 h, triplicate

Sequence	BIC50 (biofilm inhibition concentration) (C. albicans ATCC 10231 [1]) [µg/mL]	MIC (C. albicans ATCC 10231 [2]; ATCC 10231, 24 h) [µg/mL]	MIC (S. aureus ATCC 25923; ATCC 25923, 24 h) [µg/mL]	membrane integrity (PI uptake, red fluorescence) (C. albicans ATCC 10231 [3])	MIC (E. coli ATCC 25922; ATCC 25922, 24 h) [µg/mL]	MIC (P. aeruginosa ATCC 15442; ATCC 15442, 24 h) [µg/mL]	minimal fungicidal concentration (MFC) (C. albicans) [µg/mL]	ROS overproduction (DCFH-DA fluorescence) (C. albicans ATCC 10231 [4])	MIC (E. faecalis ATCC 29212; ATCC 29212, 24 h) [µg/mL]	biofilm morphology by SEM [5]	EC50 (concentration to inhibit 50% of the viable bacteria) (selected strains) [µg/mL]	MIC (S. aureus ATCC 25923; [6]) [µg/mL]	MIC (E. coli ATCC 25922; [7]) [µg/mL]	MIC (P. aeruginosa ATCC 15442; [8]) [µg/mL]	MIC (E. faecalis ATCC 29212; [9]) [µg/mL]	MIC (C. albicans ATCC 10231 [2]; synthetic peptides, C. albicans ATCC 10231, maximum tested 250 μg/mL, 1:2 dilutions, Sabouraud, 37 °C 24 h, triplicate) [µg/mL]
FHLVWRAGGTF [Peptide #14d]	23.2	31.2	> 250	damaged the cell membrane and induced an increase in red fluorescence intensity	> 250	> 250	62.5	did not induce ROS overproduction	> 250	evident variations in the morphology, inducing wrinkles and scars	–	–	–	–	–	–
FSLVNAVDQTT [Peptide #14]	–	> 250	> 250	–	> 250	> 250	–	–	> 250	–	> 100	–	–	–	–	–
IIIRKGRW [Peptide #3d]	–	–	> 250	–	> 250	> 250	–	–	> 250	–	–	–	–	–	–	–
NNWTGADCKAATLK [Peptide #5]	–	> 250	> 250	–	> 250	> 250	–	–	> 250	–	> 100	–	–	–	–	–
NWWTGARCKAATLK [Peptide #5d, synthetic derivative of natural peptide #5]	–	–	–	–	–	–	–	–	–	–	–	> 250	> 250	> 250	> 250	–
SSGYGGYGGGRF [Peptide #3]	–	–	–	–	–	–	–	–	–	–	> 100	> 250	> 250	> 250	> 250	> 250
YGGYFGNR [Peptide #7]	–	> 250	> 250	–	> 250	> 250	–	–	> 250	–	> 100	–	–	–	–	–
